In patent US20080044479A1, “Antimicrobial sanitizing formulations with skin protection properties” (priority 2006, published 2008):

Assays:
[1] = system: bacteria on skin surfaces; experiment: Persistence of bacterial reduction on skin surfaces; format: in vivo
Description: It has been discovered that incorporation of at least one of the aforementioned antimicrobial agents in a formulation comprised of a Surfactant Phase, and a Wax Phase result in a product which is particularly effective in preventing cross-contamination of pathogenic microorganisms in the workplace. […] It is applicable to any area of intact skin, and will kill pathogenic bacteria on contact and remain effective for extended periods of time. The mechanism of microbicidal action of these antibacterial agents is thought to be due to the disruption of intermolecular actions of the microbes.

[2] = system: gram-positive and gram-negative bacteria, plus fungi and yeasts; conditions: see list in U.S. Pat. Nos. 6,187,327 and 6,517,854; cited from earlier work

Oc1cc(Cl)ccc1Oc1ccc(Cl)cc1Cl [TRICLOSAN, 2,4,4′-trichloro-2′-hydroxydiphenyl ether]
period for which the incidence of bacteria on skin surfaces is significantly reduced [1]: 3 to 4 h | efficacy against microorganisms [2]: demonstrated efficacy
